Assay [1] addresses T1, recombinant human G9a protein (Homo sapiens, UniProt Q96KQ7).
T1 construct: purchased BPS Bioscience Inc. #51001
T1 sequence (Q96KQ7 785-1210 limits assumed): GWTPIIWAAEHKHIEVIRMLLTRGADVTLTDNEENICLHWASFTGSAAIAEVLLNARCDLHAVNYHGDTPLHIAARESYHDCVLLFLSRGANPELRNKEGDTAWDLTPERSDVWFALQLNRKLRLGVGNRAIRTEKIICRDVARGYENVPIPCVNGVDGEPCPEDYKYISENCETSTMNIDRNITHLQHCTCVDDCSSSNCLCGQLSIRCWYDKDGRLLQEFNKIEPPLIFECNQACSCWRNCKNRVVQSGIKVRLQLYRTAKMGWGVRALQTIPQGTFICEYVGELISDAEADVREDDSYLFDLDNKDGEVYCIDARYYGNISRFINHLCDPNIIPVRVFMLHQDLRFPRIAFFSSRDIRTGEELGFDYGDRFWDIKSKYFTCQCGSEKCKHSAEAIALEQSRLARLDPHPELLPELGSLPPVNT
Description: G9a inhibitory activity test (ALPHA). It is filed as biochemical. The following applies: read-out: Inhibitory activity (G9a IC50). The gist of the method:
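Human G9a (0.05 to 0.1 nM) in Tris pH 9.0 buffer preincubated with compound 10 min, then biotinylated histone H3 (1-21) peptide and SAM mixed 1:1 from 500 nM and 150 μM solutions, 1 h at room temperature. H3K9me2 detected by AlphaLISA acceptor/streptavidin donor beads; IC50 from percent inhibition relative to no-compound and no-enzyme controls.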

Assay [2] relates to human lung cancer cell line NCI-H460. Description: Colony formation inhibition test. It is filed as cell-based. Particulars: 288 h, NCI-H460 cells, culture for 12 days, read-out: Inhibitory activity (colony formation GI50). On the procedure:
Each compound was evaluated for its colony formation inhibitory activity against a human lung cancer cell line NCI-H460. The NCI-H460 cells were cultured in a DMEM medium (FUJIFILM Wako Pure Chemical Corp., 044-29765) containing 10% fetal bovine serum and 4 mM glutamine. The cultured cells were washed with PBS, then detached with trypsin/EDTA, and adjusted to 2×10^3 cells/mL to prepare a cell suspension. The cell suspension was inoculated at 1 mL/well to a 12-well microplate (Corning Inc., 3513), and the test compound (DMSO solution) was added at 1 μL/well, followed by culture for 12 days under conditions of 37° C. and 5% CO2. DMSO was added at 1 μL/well to control wells with a final DMSO concentration set to 0.1%. The medium was discarded every day or every two days, and a fresh medium was added at 1 mL/well. The test compound or DMSO was added at 1 μL/well. The proportion of a colony of each well was measured using a high-speed cell imaging system (Tomy Digital Biology Co., Ltd., Celigo). The ratio of the colony in each compound-supplemented group was determined with the ratio of the colony formed in a test compound solution-unsupplemented well defined as 1. A compound concentration necessary for suppressing the rate of colony formation by 50% of the control (GI50) was calculated using data analysis software Origin (LightStone Crop.).

Assay [3] has as its system intracellular histone H3K9 dimethylation level in human lung cancer cell line NCI-H460. Description: Histone H3K9 dimethylation inhibitory activity test (Western blotting). It is filed as cell-based. Particulars: NCI-H460 cells, 72 hours. On the procedure:
The inhibitory activity of each compound against G9a was evaluated by adding the compound to a human lung cancer cell line NCI-H460, and detecting change in intracellular histone H3K9 dimethylation level by Western blotting. The NCI-H460 cells were cultured in a DMEM medium (FUJIFILM Wako Pure Chemical Corp., 044-29765) containing 10% fetal bovine serum and 4 mM glutamine. The cultured cells were washed with PBS and then detached with trypsin/EDTA, and the cell suspension was adjusted to 2.5×10^4 cells/mL. The cell suspension was inoculated at 500 μL/well to a 24-well microplate (Thermo Fisher Scientific, Inc., 142475) and cultured overnight under conditions of 37° C. and 5% CO2. On the next day, the test compound (solution in DMSO) was added at 0.5 µL/well and reacted for 72 hours under conditions of 37° C. and 5% CO2. DMSO was added at 0.5 μL/well to control wells (final DMSO concentration: 0.1%). The medium was removed, and the cells were washed with PBS. Then, a 2×SDS-PAGE sample buffer (100 mM Tris-HCl (pH 6.8), 4% sodium lauryl sulfate, 2% 2-mercaptoethanol, 20% glycerol, 0.005% bromophenol blue) was added at 50 μL/well to prepare a sample. The recovered sample was heated at 95 to 100° C. for 10 minutes, and protein was separated by polyacrylamide gel electrophoresis (SDS-PAGE). Subsequently, the separated protein was transferred to a polyvinylidene fluoride (PVDF) membrane by semi-dry blotting. The PVDF membrane was dipped in 3% skimmed milk (dissolved in PBS containing 0.05% Tween 20 (PBST)), blocked at room temperature for 30 to 60 minutes, then dipped in an anti-dimethylated histone H3K9 antibody (Abcam plc, ab1220) diluted 1000-fold with 3% skimmed milk, and reacted overnight at 4° C. On the next day, the PVDF membrane was washed three times with PBST, then dipped in a HRP (horseradish peroxidase)-labeled anti-mouse IgG antibody diluted 10000-fold with skimmed milk, and reacted at room temperature for 1 hour. The PVDF membrane was washed three times with PBST, then dipped in chemiluminescent substrate solution Immobilon Western Chemiluminescent HRP Substrate (Merck Millipore, WBKLS0500), incubated at room temperature for 5 minutes, and photographed with Lumino Image Analyzer (GE Healthcare Japan Corp., ImageQuant LAS4000).
Then, the antibody was stripped from the PVDF membrane using re-probe reagent EzReprobe (ATTO Corp., WSE-7240), and trimethylated histone H3K9 and histone H3 were detected by the same procedures as above. An anti-trimethyl histone H3K9 antibody (39161, diluted 1000-fold) from Active Motif, Inc. and an anti-histone H3 antibody (ab1791, diluted 2000-fold) from Abcam plc were used in the detection. The band of each protein was quantified from the taken image using image processing software ImageJ (NIH). The ratios of dimethylated histone H3K9 and trimethylated histone H3K9 to the histone H3 protein were calculated with the numeric value of a compound-unsupplemented sample defined as 100%. A compound concentration at which the ratio of dimethylated histone H3K9 was 50% was calculated as a 50% inhibition concentration (IC50 value) using data analysis software Origin (LightStone Corp.).

This passage reports IC50 and GI50 results from patent publication US20230127046A1, “G9a INHIBITOR” (RIKEN, priority 2019, published 2023).

As to `CCCCC(NC(=O)c1ccc(N2CCN(C)CC2)cc1Cl)C(=O)Nc1ccc(OC2CCN(C)CC2)nc1` (stereo not drawn) [Example 11-4], the IC50 in assay [1] was at least 200 nM; in assay [3], at least 500 nM. Besides, the GI50 in assay [2] was at least 1000 nM.

Take `CCCC[C@H](NC(=O)c1[nH]c2c(c1C)C(=O)CC(C)(C)C2)c1nc2ccc(OCC3CCNCC3)cc2[nH]1` [Example 35-2]: the results for the IC50 in assay [1] and in assay [3] were below 50 nM and at least 500 nM, respectively. Further, in assay [2], the GI50 was at least 1000 nM.
